Literature values as cited in patent publication US20090029375A1, “GENETIC MODELS FOR STRATIFICATION OF CANCER RISK” (Intergenetics, Inc., priority 2007, published 2009).

What was measured:
breast cancer = conditions: osteoporosis prevention/treatment study
estrogen receptors = conditions: preclinical data, uterine and breast tissues
[1] = system: rat mammary carcinoma induced by dimethylbenzanthracene (DMBA)

Structure (SMILES)	effect on incidence of breast cancer (breast cancer)	estrogen antagonism (estrogen receptors)	induction of rat mammary carcinoma [1]
O=C(c1ccc(OCCN2CCCCC2)cc1)c1c(-c2ccc(O)cc2)sc2cc(O)ccc12 [raloxifene]	reduce the incidence of breast cancer	estrogen antagonist	
CC/C(=C(\c1ccccc1)c1ccc(OCCN(C)C)cc1)c1ccccc1 [tamoxifen]			inhibits the induction
